Data: patent publication US7855166B2, “Sulfonylamino(thio)carbonyl compounds” (Bayer Cropscience GmbH, priority 2005, dated 2010)

How the values were obtained:
[1] = tested on: weed plants such as Sinapis alba, Chrysanthemum segetum, Avena sativa, Stellaria media, Echinochloa crus-galli, Lolium multiflorum, Setaria viridis, Abutilon …; test: Pre-emergence effect on weeds (greenhouse pot test, visual scoring); format: in vivo; settings: applied pre-emergence at a rate of 0.3 kg or less of active substance per hectare; scored after 3 to 4 weeks in comparison to untreated controls
[2] = tested on: weed plants such as Sinapis alba, Echinochloa crus-galli, Lolium multiflorum, Chrysanthemum segetum, Setaria viridis, Abutilon theophrasti, Amaranthus …; test: Post-emergence effect on weeds (greenhouse pot test, visual scoring); format: in vivo; settings: applied post-emergence (three-leaf stage) at a rate of 0.3 kg or less of active substance per hectare; scored after about 3 to 4 weeks in comparison to untreated controls

`CCCCc1ccc(S(=O)(=O)NC(=O)n2nc(OCCC)n(C)c2=O)c(I)c1` [Compound 1.884] was tested, and the “herbicidal action against weed plants (visual scoring of plant damage or emergence damage)” value [1] was “very good herbidical action” and the “herbicidal action against weed plants (effect scored visually)” value [2] was “very good herbicidal action”.

`CCCCc1ccc(S(=O)(=O)NC(=O)n2nc(OC)n(C)c2=O)c(I)c1` [Compound 1.885] was tested, and the “herbicidal action against weed plants (visual scoring of plant damage or emergence damage)” value [1] was “very good herbidical action” and the “herbicidal action against weed plants (effect scored visually)” value [2] was “very good herbicidal action”.

In the case of `CCCCc1ccc(S(=O)(=O)NC(=O)n2nc(OC)n(C3CC3)c2=O)c(I)c1` [Compound 1.886], the “herbicidal action against weed plants (visual scoring of plant damage or emergence damage)” value [1] is reported as “very good herbidical action” and the “herbicidal action against weed plants (effect scored visually)” value [2] is reported as “very good herbicidal action”.

`CCCCc1ccc(S(=O)(=O)NC(=O)n2nc(OCC)n(C3CC3)c2=O)c(I)c1` [Compound 1.887] was tested, and the “herbicidal action against weed plants (visual scoring of plant damage or emergence damage)” value [1] was “very good herbidical action” and the “herbicidal action against weed plants (effect scored visually)” value [2] was “very good herbicidal action”.

In the case of `CCCCc1ccc(S(=O)(=O)NC(=O)n2nc(OCCC)n(C3CC3)c2=O)c(I)c1` [Compound 1.888], the “herbicidal action against weed plants (visual scoring of plant damage or emergence damage)” value [1] is reported as “very good herbidical action” and the “herbicidal action against weed plants (effect scored visually)” value [2] is reported as “very good herbicidal action”.

In the case of `CCCCc1ccc(S(=O)(=O)NC(=O)n2nc(OC(C)C)n(C)c2=O)c(I)c1` [Compound 1.889], the “herbicidal action against weed plants (visual scoring of plant damage or emergence damage)” value [1] is reported as “very good herbidical action” and the “herbicidal action against weed plants (effect scored visually)” value [2] is reported as “very good herbicidal action”.

For `CCOc1nn(C(=O)NS(=O)(=O)c2ccc(C(F)(F)F)cc2I)c(=O)n1C` [Compound 1.890], the “herbicidal action against weed plants (visual scoring of plant damage or emergence damage)” value [1] was “very good herbidical action” and the “herbicidal action against weed plants (effect scored visually)” value [2] was “very good herbicidal action”.

In the case of `CCOc1nn(C(=O)NS(=O)(=O)c2ccc(C(F)(F)F)cc2I)c(=O)n1C1CC1` [Compound 1.891], the “herbicidal action against weed plants (visual scoring of plant damage or emergence damage)” value [1] is reported as “very good herbidical action” and the “herbicidal action against weed plants (effect scored visually)” value [2] is reported as “very good herbicidal action”.

In the case of `O=C(NS(=O)(=O)c1ccc(C(F)(F)F)cc1I)n1nc(C2CC2)n(C2CC2)c1=O` [Compound 1.892], the “herbicidal action against weed plants (visual scoring of plant damage or emergence damage)” value [1] is reported as “very good herbidical action” and the “herbicidal action against weed plants (effect scored visually)” value [2] is reported as “very good herbicidal action”.

For `COc1nn(C(=O)NS(=O)(=O)c2ccc(C(F)(F)F)cc2I)c(=O)n1C` [Compound 1.893], the “herbicidal action against weed plants (visual scoring of plant damage or emergence damage)” value [1] was “very good herbidical action” and the “herbicidal action against weed plants (effect scored visually)” value [2] was “very good herbicidal action”.

`CCCOc1nn(C(=O)NS(=O)(=O)c2ccc(C(F)(F)F)cc2I)c(=O)n1C` [Compound 1.894] was tested, and the “herbicidal action against weed plants (visual scoring of plant damage or emergence damage)” value [1] was “very good herbidical action” and the “herbicidal action against weed plants (effect scored visually)” value [2] was “very good herbicidal action”.

`CC(C)Oc1nn(C(=O)NS(=O)(=O)c2ccc(C(F)(F)F)cc2I)c(=O)n1C` [Compound 1.895] was tested, and the “herbicidal action against weed plants (visual scoring of plant damage or emergence damage)” value [1] was “very good herbidical action” and the “herbicidal action against weed plants (effect scored visually)” value [2] was “very good herbicidal action”.

In the case of `COc1nn(C(=O)NS(=O)(=O)c2ccc(C(F)(F)F)cc2I)c(=O)n1C1CC1` [Compound 1.896], the “herbicidal action against weed plants (visual scoring of plant damage or emergence damage)” value [1] is reported as “very good herbidical action” and the “herbicidal action against weed plants (effect scored visually)” value [2] is reported as “very good herbicidal action”.
